Data taken from PMC10176470, “Engaging a Non-catalytic Cysteine Residue Drives Potent and Selective Inhibition of Caspase-6” (Journal of the American Chemical Society, 2023).
Read-outs that look alike come from different tables or passages of the source.

Key:
Format in all cases: cell-based
[1] = target: T1, proteins of HEK293T cells transiently overexpressing caspase-6 (Homo sapiens, UniProt O95197); settings: protein RTN3 (O95197)
T1 sequence (O95197 1-1032): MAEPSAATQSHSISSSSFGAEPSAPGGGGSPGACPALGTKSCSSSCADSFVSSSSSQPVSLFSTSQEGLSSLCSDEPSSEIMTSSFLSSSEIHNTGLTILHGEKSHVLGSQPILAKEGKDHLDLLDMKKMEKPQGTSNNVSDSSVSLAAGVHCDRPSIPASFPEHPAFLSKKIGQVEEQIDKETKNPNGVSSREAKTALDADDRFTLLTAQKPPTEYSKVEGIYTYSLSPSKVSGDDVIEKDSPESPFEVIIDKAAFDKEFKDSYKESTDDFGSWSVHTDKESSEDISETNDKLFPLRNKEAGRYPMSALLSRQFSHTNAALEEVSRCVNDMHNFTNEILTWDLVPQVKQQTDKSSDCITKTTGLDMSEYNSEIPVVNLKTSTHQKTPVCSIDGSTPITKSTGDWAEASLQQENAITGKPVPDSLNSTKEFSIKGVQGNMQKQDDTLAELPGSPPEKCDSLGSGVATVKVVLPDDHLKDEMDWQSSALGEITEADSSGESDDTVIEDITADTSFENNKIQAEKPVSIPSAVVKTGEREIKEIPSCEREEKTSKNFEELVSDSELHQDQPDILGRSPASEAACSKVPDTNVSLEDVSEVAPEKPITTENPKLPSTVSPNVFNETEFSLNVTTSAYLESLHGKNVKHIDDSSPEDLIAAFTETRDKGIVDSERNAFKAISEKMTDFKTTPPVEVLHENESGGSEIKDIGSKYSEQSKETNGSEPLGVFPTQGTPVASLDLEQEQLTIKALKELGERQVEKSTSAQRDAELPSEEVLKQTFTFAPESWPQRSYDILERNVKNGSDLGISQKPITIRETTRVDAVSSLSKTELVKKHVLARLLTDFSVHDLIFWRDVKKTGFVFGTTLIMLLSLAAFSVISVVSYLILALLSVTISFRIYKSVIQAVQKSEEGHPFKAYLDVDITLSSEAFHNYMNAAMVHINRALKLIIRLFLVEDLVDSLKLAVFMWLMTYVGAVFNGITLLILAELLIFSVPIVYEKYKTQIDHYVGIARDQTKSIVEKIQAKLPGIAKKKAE

[2] = target: proteins of HEK293T cells transiently overexpressing caspase-6 (Homo sapiens, UniProt P63241); settings: exp_ref Probe; protein EIF5A (P63241); analysis C6
[3] = target: proteins of HEK293T cells transiently overexpressing caspase-6 (Homo sapiens, UniProt Q9UEG4)
[4] = target: proteins of HEK293T cells transiently overexpressing caspase-6 (Homo sapiens, UniProt P39023); settings: exp_ref Probe; protein RPL3 (P39023); analysis C6
[5] = target: proteins of HEK293T cells transiently overexpressing caspase-6 (Homo sapiens, UniProt P52272); settings: exp_ref Probe; protein HNRNPM (P52272); analysis C6
[6] = target: proteins of HEK293T cells transiently overexpressing caspase-6 (Homo sapiens, UniProt P61619); settings: exp_ref Probe; protein SEC61A1 (P61619); analysis C6
[7] = target: proteins of HEK293T cells transiently overexpressing caspase-6 (Homo sapiens, UniProt Q9Y262); settings: exp_ref Probe; protein EIF3L (Q9Y262); analysis C6
[8] = target: proteins of HEK293T cells transiently overexpressing caspase-6 (Homo sapiens, UniProt P08758); settings: exp_ref Probe; protein ANXA5 (P08758); analysis C6
[9] = target: proteins of HEK293T cells transiently overexpressing caspase-6 (Homo sapiens, UniProt Q15393); settings: exp_ref Probe; protein SF3B3 (Q15393); analysis C6
[10] = target: proteins of HEK293T cells transiently overexpressing caspase-6 (Homo sapiens, UniProt Q12906); settings: exp_ref Probe; protein ILF3 (Q12906); analysis C6
[11] = target: proteins of HEK293T cells transiently overexpressing caspase-6 (Homo sapiens, UniProt P30153); settings: exp_ref Probe; protein PPP2R1A (P30153); analysis C6
[12] = target: proteins of HEK293T cells transiently overexpressing caspase-6 (Homo sapiens, UniProt P11388); settings: protein TOP2A (P11388)
[13] = target: proteins of HEK293T cells transiently overexpressing caspase-6 (Homo sapiens, UniProt P11586); settings: Probe; protein MTHFD1 P11586
Sequence of proteins of HEK293T cells transiently overexpressing caspase-6 (Homo sapiens, UniProt P11586) (P11586 whole entry): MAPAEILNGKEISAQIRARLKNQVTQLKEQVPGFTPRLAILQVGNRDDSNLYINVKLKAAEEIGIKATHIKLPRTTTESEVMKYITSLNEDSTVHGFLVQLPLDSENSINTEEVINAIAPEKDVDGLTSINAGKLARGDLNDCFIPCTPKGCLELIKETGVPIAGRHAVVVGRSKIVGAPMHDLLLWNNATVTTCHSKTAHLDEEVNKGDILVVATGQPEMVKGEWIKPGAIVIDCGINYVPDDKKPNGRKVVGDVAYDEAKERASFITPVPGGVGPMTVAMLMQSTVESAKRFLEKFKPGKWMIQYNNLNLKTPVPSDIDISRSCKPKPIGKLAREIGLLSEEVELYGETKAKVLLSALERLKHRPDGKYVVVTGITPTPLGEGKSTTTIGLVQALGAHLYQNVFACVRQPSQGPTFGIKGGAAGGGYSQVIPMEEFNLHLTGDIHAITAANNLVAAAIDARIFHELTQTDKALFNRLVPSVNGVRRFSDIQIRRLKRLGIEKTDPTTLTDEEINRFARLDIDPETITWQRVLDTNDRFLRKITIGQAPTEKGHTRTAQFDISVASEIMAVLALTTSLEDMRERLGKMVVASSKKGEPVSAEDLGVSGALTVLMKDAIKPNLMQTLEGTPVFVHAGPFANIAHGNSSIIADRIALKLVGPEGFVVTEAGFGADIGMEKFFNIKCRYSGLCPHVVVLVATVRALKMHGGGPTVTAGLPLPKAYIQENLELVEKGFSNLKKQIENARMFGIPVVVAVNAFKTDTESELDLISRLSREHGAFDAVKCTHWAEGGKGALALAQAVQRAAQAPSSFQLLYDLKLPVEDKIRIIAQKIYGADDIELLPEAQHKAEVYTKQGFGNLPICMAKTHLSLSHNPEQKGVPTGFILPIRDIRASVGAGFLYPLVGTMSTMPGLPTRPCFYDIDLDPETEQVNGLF

Sequence of proteins of HEK293T cells transiently overexpressing caspase-6 (Homo sapiens, UniProt Q9UEG4) (Q9UEG4 whole entry): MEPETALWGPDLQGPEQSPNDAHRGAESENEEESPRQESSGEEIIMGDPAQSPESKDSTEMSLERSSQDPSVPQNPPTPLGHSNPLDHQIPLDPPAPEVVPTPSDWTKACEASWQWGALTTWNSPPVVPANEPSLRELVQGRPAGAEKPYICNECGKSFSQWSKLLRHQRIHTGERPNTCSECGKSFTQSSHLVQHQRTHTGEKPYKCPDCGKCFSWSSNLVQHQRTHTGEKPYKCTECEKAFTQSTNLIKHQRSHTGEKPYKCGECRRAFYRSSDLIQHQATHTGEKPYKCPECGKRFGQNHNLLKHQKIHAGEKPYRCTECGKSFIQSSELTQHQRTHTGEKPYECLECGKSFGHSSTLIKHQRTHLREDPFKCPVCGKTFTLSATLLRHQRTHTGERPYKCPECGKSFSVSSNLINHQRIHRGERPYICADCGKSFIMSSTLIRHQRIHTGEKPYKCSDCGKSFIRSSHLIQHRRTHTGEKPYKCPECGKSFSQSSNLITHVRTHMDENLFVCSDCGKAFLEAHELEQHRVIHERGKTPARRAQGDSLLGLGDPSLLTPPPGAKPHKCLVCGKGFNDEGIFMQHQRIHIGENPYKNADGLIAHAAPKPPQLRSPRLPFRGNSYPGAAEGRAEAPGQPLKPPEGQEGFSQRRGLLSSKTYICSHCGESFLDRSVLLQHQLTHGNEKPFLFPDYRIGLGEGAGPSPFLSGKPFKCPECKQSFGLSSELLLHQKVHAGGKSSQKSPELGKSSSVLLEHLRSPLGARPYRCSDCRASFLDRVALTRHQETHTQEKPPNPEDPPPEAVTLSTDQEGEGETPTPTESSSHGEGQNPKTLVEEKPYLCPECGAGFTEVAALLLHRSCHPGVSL
Sequence of proteins of HEK293T cells transiently overexpressing caspase-6 (Homo sapiens, UniProt P11388) (P11388 whole entry): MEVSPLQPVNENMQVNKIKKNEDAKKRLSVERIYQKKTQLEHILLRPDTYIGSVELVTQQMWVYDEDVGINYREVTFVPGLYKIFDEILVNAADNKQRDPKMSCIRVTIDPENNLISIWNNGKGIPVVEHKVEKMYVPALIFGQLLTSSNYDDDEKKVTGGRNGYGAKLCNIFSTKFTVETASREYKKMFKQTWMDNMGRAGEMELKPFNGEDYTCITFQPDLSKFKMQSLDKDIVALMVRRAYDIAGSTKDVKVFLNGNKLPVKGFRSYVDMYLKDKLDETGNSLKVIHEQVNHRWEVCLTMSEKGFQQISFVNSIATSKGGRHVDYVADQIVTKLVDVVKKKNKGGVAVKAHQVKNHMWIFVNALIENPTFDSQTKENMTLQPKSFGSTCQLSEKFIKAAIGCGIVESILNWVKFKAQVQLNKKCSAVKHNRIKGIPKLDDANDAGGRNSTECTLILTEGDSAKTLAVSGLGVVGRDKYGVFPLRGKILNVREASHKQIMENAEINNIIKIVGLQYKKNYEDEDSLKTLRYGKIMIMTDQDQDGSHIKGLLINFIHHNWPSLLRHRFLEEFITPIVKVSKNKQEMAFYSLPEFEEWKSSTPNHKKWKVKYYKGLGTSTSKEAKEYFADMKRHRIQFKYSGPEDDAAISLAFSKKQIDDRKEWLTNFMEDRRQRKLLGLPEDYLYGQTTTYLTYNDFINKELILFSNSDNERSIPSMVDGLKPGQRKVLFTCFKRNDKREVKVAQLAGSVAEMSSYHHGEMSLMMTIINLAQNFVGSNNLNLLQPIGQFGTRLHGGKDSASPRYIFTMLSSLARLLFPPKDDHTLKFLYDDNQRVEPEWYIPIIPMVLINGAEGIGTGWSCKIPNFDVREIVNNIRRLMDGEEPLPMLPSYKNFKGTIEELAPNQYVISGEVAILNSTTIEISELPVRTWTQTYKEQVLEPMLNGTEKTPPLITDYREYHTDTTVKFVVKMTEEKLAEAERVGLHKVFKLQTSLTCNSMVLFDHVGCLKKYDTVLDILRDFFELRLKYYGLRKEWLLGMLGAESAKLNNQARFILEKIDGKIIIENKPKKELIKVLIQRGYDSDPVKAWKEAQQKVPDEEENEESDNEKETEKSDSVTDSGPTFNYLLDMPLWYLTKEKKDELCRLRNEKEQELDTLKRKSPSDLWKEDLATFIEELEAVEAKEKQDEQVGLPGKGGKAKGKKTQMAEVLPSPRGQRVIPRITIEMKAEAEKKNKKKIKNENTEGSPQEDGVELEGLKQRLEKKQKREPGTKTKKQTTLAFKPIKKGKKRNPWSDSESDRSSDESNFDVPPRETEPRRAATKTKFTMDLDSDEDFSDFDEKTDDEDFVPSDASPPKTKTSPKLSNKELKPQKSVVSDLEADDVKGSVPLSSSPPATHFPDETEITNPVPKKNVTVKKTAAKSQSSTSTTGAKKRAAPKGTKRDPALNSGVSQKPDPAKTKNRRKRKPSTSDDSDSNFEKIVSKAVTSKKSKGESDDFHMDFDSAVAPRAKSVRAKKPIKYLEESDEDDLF
Sequence of proteins of HEK293T cells transiently overexpressing caspase-6 (Homo sapiens, UniProt P63241) (P63241 whole entry): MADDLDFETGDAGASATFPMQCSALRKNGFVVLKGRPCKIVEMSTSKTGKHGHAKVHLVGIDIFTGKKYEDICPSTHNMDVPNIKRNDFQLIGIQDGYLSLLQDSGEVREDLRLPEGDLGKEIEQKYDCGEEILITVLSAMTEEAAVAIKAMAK
Sequence of proteins of HEK293T cells transiently overexpressing caspase-6 (Homo sapiens, UniProt Q12906) (Q12906 whole entry): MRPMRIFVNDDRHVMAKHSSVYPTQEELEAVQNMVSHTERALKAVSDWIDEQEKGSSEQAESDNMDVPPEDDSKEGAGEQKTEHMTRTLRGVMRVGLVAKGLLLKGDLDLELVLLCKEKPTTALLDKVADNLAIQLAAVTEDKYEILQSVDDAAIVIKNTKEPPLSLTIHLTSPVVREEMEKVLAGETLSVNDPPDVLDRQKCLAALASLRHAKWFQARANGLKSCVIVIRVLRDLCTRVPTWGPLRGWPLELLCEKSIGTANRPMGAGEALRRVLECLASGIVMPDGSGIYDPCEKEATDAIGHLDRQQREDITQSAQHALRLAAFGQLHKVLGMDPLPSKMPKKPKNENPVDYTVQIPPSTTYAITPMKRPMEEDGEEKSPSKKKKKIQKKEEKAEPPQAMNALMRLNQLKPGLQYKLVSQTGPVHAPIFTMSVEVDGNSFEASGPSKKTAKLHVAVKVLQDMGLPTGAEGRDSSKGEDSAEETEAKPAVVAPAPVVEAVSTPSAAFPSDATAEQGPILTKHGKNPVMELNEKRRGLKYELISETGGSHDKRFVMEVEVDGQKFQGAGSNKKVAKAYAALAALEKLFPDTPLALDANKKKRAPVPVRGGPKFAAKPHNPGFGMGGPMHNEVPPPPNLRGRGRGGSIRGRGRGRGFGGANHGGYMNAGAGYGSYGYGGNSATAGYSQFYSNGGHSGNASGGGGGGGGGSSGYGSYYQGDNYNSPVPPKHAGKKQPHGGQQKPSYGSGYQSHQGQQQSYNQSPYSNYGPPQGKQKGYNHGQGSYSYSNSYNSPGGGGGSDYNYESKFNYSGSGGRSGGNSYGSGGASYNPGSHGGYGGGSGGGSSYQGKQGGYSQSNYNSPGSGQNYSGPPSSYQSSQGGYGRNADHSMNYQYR
Sequence of proteins of HEK293T cells transiently overexpressing caspase-6 (Homo sapiens, UniProt P08758) (P08758 whole entry): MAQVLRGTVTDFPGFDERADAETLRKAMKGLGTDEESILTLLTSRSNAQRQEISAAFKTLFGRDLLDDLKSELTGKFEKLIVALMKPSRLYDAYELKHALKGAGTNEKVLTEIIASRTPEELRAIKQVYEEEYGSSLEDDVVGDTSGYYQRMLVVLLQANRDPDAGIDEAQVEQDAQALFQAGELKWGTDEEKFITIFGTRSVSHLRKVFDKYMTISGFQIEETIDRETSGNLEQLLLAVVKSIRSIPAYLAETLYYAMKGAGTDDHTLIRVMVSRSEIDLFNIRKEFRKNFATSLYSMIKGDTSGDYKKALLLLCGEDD

`C#CCOc1ccc([C@@H]2C[C@@H](C(=O)Nc3ccc(OC(F)(F)F)cc3)CN(S(=O)(=O)C=C)C2)cc1` (relative stereo) [13-t] was tested, and the enrich.exp.med.lin [1] was 5.629, the enrich.exp.med.log2 [1] was 2.493 and the enrich.exp.med.lin ([1]; Expt Probe, analysis C6) was 5.629. For the same molecule, the enrich.exp.med.log2 ([1]; Expt Probe, analysis C6) was 2.493, the enrich.exp.med ([1]; exp_ref Probe, analysis C6) was 2.493 and the enrich.exp.med [2] was -0.3746. It also gave an enrich.exp.med ([3]; Probe, protein ZNF629 Q9UEG4) of -2.2193, an enrich.exp.med.lin ([3]; protein ZNF629 (Q9UEG4)) of 0.2147 and an enrich.exp.med.log2 ([3]; protein ZNF629 (Q9UEG4)) of -2.2193. The enrich.exp.med [4] was -0.06221, the enrich.exp.med [5] was 0.2991 and the enrich.exp.med [6] was 0.5807. The enrich.exp.med [7] was 0.2171, the enrich.exp.med [8] was 0.2384 and the enrich.exp.med [9] was -0.1408. The enrich.exp.med [10] was 0.1427, the enrich.exp.med [11] was 0.444 and the enrich.exp.med.lin [12] was 3.929. For the same molecule, the enrich.exp.med.log2 [12] was 1.974, the enrich.exp.med ([12]; exp_ref Probe, analysis C6) was 1.974 and the enrich.exp.med [13] was -1.178.
